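Results reflect a 48-hour exposure of cells in 96-well plates to compound at five concentrations. Abbreviation: GI50, concentration required for 50% inhibition of growth.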 Calls of active or inactive are those of the source. Rule as the data show it: active = GI50 up to about 1.1 µM and inactive = higher.
Assays:
Assay in all cases: NCI tumour cell line growth inhibition, 48 h
SNB-75 = system: SNB-75
OVCAR-4 = system: OVCAR-4
HT-29 = system: HT-29
NCI/ADR-RES = system: NCI/ADR-RES
TK-10 = system: TK-10
K562 = system: K562
SF-268 = system: SF-268
SK-MEL-5 = system: SK-MEL-5
UACC-62 = system: UACC-62
DU-145 = system: DU-145
SK-MEL-28 = system: SK-MEL-28
RXF 393 = system: RXF 393
NCI-H226 = system: NCI-H226
HCC 2998 = system: HCC 2998
PC-3 = system: PC-3
SR = system: SR
SNB-19 = system: SNB-19
OVCAR-8 = system: OVCAR-8

SMILES	GI50 (SNB-75)	GI50 (OVCAR-4)	GI50 (HT-29)	GI50 (NCI/ADR-RES)	GI50 (TK-10)	GI50 (K562)	GI50 (SF-268)	GI50 (SK-MEL-5)	GI50 (UACC-62)	GI50 (DU-145)	GI50 (SK-MEL-28)	GI50 (RXF 393)	GI50 (NCI-H226)	GI50 (HCC 2998)	GI50 (PC-3)	GI50 (SR)	GI50 (SNB-19)	GI50 (OVCAR-8)
CCCCCCCCC/C=C1/CC(CO)(COC(=O)c2ccccc2)OC1=O (centres undefined)	10.2 µM (inactive)	12.7 µM (inactive)	17.7 µM (inactive)	15.5 µM (inactive)	10.8 µM (inactive)	3.89 µM (inactive)	15.7 µM (inactive)	3.78 µM (inactive)	14.7 µM (inactive)	12.9 µM (inactive)	13.7 µM (inactive)	15.6 µM (inactive)	10.5 µM (inactive)	14.6 µM (inactive)	10.8 µM (inactive)	17.9 µM (inactive)	15.4 µM (inactive)	–
CCN(CC)CCn1ncc2ccc3c(c(=O)c4cccnc4n3CCN(CC)CC)c21	1.05 µM (active)	0.933 µM (active)	0.435 µM (active)	1.45 µM (inactive)	2.24 µM (inactive)	0.119 µM (active)	1.35 µM (inactive)	1.09 µM (active)	2.49 µM (inactive)	2.41 µM (inactive)	2.05 µM (inactive)	0.67 µM (active)	1.7 µM (inactive)	0.75 µM (active)	0.986 µM (active)	0.284 µM (active)	1.97 µM (inactive)	0.561 µM (active)
CSc1nc(=O)c(C#N)c(-c2ccccc2)n1C1OC(COC(C)=O)C(OC(C)=O)C(OC(C)=O)C1OC(C)=O (centres undefined)	42.5 µM (inactive)	> 100 µM (inactive)	> 100 µM (inactive)	> 100 µM (inactive)	> 100 µM (inactive)	> 100 µM (inactive)	> 100 µM (inactive)	81.7 µM (inactive)	> 100 µM (inactive)	> 100 µM (inactive)	> 100 µM (inactive)	94.4 µM (inactive)	> 100 µM (inactive)	> 100 µM (inactive)	52.2 µM (inactive)	> 100 µM (inactive)	> 100 µM (inactive)	60.5 µM (inactive)
O=C(/C=C/c1ccccc1)Nc1ccccc1SCCCCl	17.7 µM (inactive)	12.1 µM (inactive)	7.94 µM (inactive)	3.66 µM (inactive)	55.7 µM (inactive)	9.66 µM (inactive)	14.4 µM (inactive)	19.3 µM (inactive)	6.9 µM (inactive)	10.2 µM (inactive)	> 47.4 µM (inactive)	8.43 µM (inactive)	> 33.7 µM (inactive)	21.6 µM (inactive)	9.91 µM (inactive)	9.38 µM (inactive)	19.1 µM (inactive)	16.5 µM (inactive)
C[C@]12CC[C@H]3[C@@H](CCC4=CC(=O)CC[C@@]43C)[C@]1(O)CC[C@]2(O)C(=O)CO	> 100 µM (inactive)	> 100 µM (inactive)	> 100 µM (inactive)	> 100 µM (inactive)	> 100 µM (inactive)	> 100 µM (inactive)	> 100 µM (inactive)	> 100 µM (inactive)	> 100 µM (inactive)	> 100 µM (inactive)	> 100 µM (inactive)	> 100 µM (inactive)	> 100 µM (inactive)	> 100 µM (inactive)	> 100 µM (inactive)	> 100 µM (inactive)	> 100 µM (inactive)	> 100 µM (inactive)
FC(F)(F)c1ccc2c(c1)nc(Cc1ccccc1)n2C[C@@H]1CCCN2CCCCC12 (some centres undefined)	15.1 µM (inactive)	15.2 µM (inactive)	12 µM (inactive)	15.1 µM (inactive)	17.1 µM (inactive)	18.9 µM (inactive)	14.8 µM (inactive)	14.4 µM (inactive)	16.7 µM (inactive)	15.5 µM (inactive)	16.2 µM (inactive)	8.55 µM (inactive)	19.2 µM (inactive)	4.68 µM (inactive)	14.3 µM (inactive)	10.1 µM (inactive)	14.8 µM (inactive)	15.3 µM (inactive)
O=C(Nc1ccccc1)N(CCCCN(Cc1ccccc1)C(=O)Nc1ccccc1)Cc1ccccc1	27.7 µM (inactive)	75.5 µM (inactive)	74.5 µM (inactive)	> 100 µM (inactive)	> 100 µM (inactive)	30.8 µM (inactive)	> 100 µM (inactive)	> 100 µM (inactive)	> 100 µM (inactive)	> 100 µM (inactive)	> 100 µM (inactive)	43.8 µM (inactive)	> 100 µM (inactive)	> 100 µM (inactive)	> 100 µM (inactive)	44.3 µM (inactive)	38 µM (inactive)	> 100 µM (inactive)
c1ccc2c(c1)CCc1[nH]c3c(c1-2)-c1ccccc1CC3	80.5 µM (inactive)	61.5 µM (inactive)	32.3 µM (inactive)	98.6 µM (inactive)	98.6 µM (inactive)	36.7 µM (inactive)	78 µM (inactive)	> 100 µM (inactive)	> 100 µM (inactive)	> 100 µM (inactive)	> 100 µM (inactive)	45.3 µM (inactive)	61.8 µM (inactive)	36 µM (inactive)	64.1 µM (inactive)	38.7 µM (inactive)	> 100 µM (inactive)	> 100 µM (inactive)
COc1ccc(/N=c2\ssc(C(=S)Nc3ccc(OC)cc3)c2S)cc1	> 100 µM (inactive)	> 100 µM (inactive)	> 100 µM (inactive)	> 100 µM (inactive)	> 100 µM (inactive)	37.7 µM (inactive)	> 100 µM (inactive)	> 100 µM (inactive)	> 100 µM (inactive)	> 100 µM (inactive)	6.68 µM (inactive)	> 100 µM (inactive)	> 100 µM (inactive)	32.4 µM (inactive)	> 100 µM (inactive)	> 100 µM (inactive)	> 100 µM (inactive)	97.5 µM (inactive)
CC(=O)c1ccc(Br)cc1NC1=CC(=O)c2ncccc2C1=O	0.242 µM (active)	1.83 µM (inactive)	3.24 µM (inactive)	3.9 µM (inactive)	17.6 µM (inactive)	1.49 µM (inactive)	7.26 µM (inactive)	0.322 µM (active)	2.58 µM (inactive)	4.36 µM (inactive)	6.79 µM (inactive)	5.13 µM (inactive)	3.64 µM (inactive)	3.22 µM (inactive)	3.95 µM (inactive)	2.22 µM (inactive)	3.84 µM (inactive)	5.53 µM (inactive)
O=C1N[C@@H]2c3c(Br)sc(Br)c3C(=O)[C@@H]2O1	6.14 µM (inactive)	1.79 µM (inactive)	1.9 µM (inactive)	3.66 µM (inactive)	6 µM (inactive)	0.887 µM (active)	7.66 µM (inactive)	6.59 µM (inactive)	13.2 µM (inactive)	15 µM (inactive)	2.62 µM (inactive)	2.2 µM (inactive)	9.66 µM (inactive)	3.69 µM (inactive)	6.41 µM (inactive)	1.81 µM (inactive)	15.8 µM (inactive)	2.11 µM (inactive)
O=C(Nc1ccn(C2CC(I)C(COC(c3ccccc3)(c3ccccc3)c3ccccc3)O2)c(=O)n1)c1ccccc1 (centres undefined)	2.43 µM (inactive)	3.75 µM (inactive)	6.5 µM (inactive)	9.75 µM (inactive)	15.9 µM (inactive)	5.28 µM (inactive)	12 µM (inactive)	9.53 µM (inactive)	11.2 µM (inactive)	11.9 µM (inactive)	11.4 µM (inactive)	8.59 µM (inactive)	8.55 µM (inactive)	12.6 µM (inactive)	2.36 µM (inactive)	0.6 µM (active)	12.9 µM (inactive)	9.25 µM (inactive)
CN(C)CC1CN/C(=N\C(=O)Nc2ccccc2)O1 (centres undefined)	> 100 µM (inactive)	> 100 µM (inactive)	> 100 µM (inactive)	> 100 µM (inactive)	> 100 µM (inactive)	> 100 µM (inactive)	> 100 µM (inactive)	> 100 µM (inactive)	> 100 µM (inactive)	> 100 µM (inactive)	> 100 µM (inactive)	> 100 µM (inactive)	> 100 µM (inactive)	> 100 µM (inactive)	> 100 µM (inactive)	> 100 µM (inactive)	> 100 µM (inactive)	> 100 µM (inactive)
C=CCOc1ccc(C2C(C(=O)OCC)C(=O)CC(C)(O)C2C(=O)OCC)cc1OC (centres undefined)	> 100 µM (inactive)	> 100 µM (inactive)	> 100 µM (inactive)	> 100 µM (inactive)	> 100 µM (inactive)	> 100 µM (inactive)	> 100 µM (inactive)	> 100 µM (inactive)	> 100 µM (inactive)	> 100 µM (inactive)	> 100 µM (inactive)	> 100 µM (inactive)	> 100 µM (inactive)	> 100 µM (inactive)	> 100 µM (inactive)	> 100 µM (inactive)	> 100 µM (inactive)	> 100 µM (inactive)
COc1cc2c[n+](C)c3c4cc(OC)c(OC)cc4c(OCc4ccccc4)cc3c2cc1OC	0.199 µM (active)	2.02 µM (inactive)	2.28 µM (inactive)	> 100 µM (inactive)	> 31.6 µM (inactive)	1.83 µM (inactive)	0.0432 µM (active)	0.838 µM (active)	0.434 µM (active)	1.08 µM (active)	1.24 µM (inactive)	1.6 µM (inactive)	0.231 µM (active)	2.1 µM (inactive)	0.877 µM (active)	0.14 µM (active)	0.0681 µM (active)	1.91 µM (inactive)

Reference: ChEMBL document CHEMBL1201862, “PubChem BioAssay data set” (2004)
